# Laboratory results from paper PMC4744035, “In Vivo, In Vitro, and In Silico Characterization of Peptoids as Antimicrobial Agents” (PLoS ONE, 2016).
# Numbered stars: 1 amine (or outer) side, 2 acyl side, 3 side chain; on linkers, the order of the positions; unused ones are H or OH. Square brackets hold non-standard residues; d marks the D form. Peptide text beside a SMILES is read from it. X1 = CC(C)[C@H](C)N(CC(=O)[*:2])[*:1]; Nspe = C[C@H](NCC(=O)O)c1ccccc1; Nlys = NCCCCNCC(=O)O
# Assays:
# [1] = system: E. coli ATCC 35218; type: cell-based
# Experimental: MICs against B. subtilis and E. coli screening bacterial strains were determined using serial dilution in 96-well microtiter plates in accordance with CLSI M7-A6 protocols. Briefly, peptoid solution in cation-adjusted Mueller-Hinton broth was prepared by 2:1 serial dilution with a total volume of 50 µL per well. In experimental wells, 50 µL of bacterial inoculums (1 x 10^6 CFU/mL) were added to the peptoid solutions. Positive controls consisted of 50 µL inoculums added to 50 µL cation-adjusted Mueller-Hinton broth containing no peptoid, while negative controls contained only cation-adjusted Mueller-Hinton broth. […] Experiments were reproducible among three independent replicates, each consisting of two parallel trials.
# [2] = system: erythrocytes; assay: Hemolytic activity (HD10/HD50); type: cell-based
# From the text: Table 1 Characteristics of antimicrobial peptoids, screened for activity against B. subtilis and E. coli bacterial strains. | column: HD10 / HD50
# [3] = system: NIH 3T3 cells; assay: Metabolic activity, MTS assay; type: cell-based, mouse
# Experimental: NIH 3T3 mouse fibroblast cells were cultured in complete Dulbecco’s Modified Eagle’s Media. A peptoid solution plate (100 µL per well) was prepared by serial dilution of aqueous peptoid stock solutions in Hank’s balanced salt solution. A day-old cell monolayer was washed thoroughly with Hank’s balanced salt solution and replenished with 100 µL Hank’s balanced salt solution per well. Peptoid solutions were transferred onto the day-old cell monolayers, which contained approximately 5000 cells per well. […] The average of six replicate trials is reported.
# [4] = system: E. cloacae 218R Class C β-lactamase; assay: microbe, parasite or virus in culture; conditions: 218R Class C β-lactamase
# Experimental: (§1) The MICs of test agents were measured using a modified broth micro-dilution method in Difco Mueller Hinton medium, on a panel of bacterial pathogens that were both susceptible and resistant to common antibiotics (S1 File). Briefly, serial dilutions were performed in 0.01% acetic acid containing 0.2% bovine serum albumin at 10-fold the desired final concentration. Ten μL of the 10-fold concentrated test reagents were added to each well of a 96-well polypropylene microtitre plate containing 90 μL of Mueller Hinton media per well. Bacteria were added to the plate from an overnight culture at a final concentration of 2–7 x 10^5 CFU/mL and incubated overnight at 37°C. The MIC is defined as the concentration at which no growth was observed.
# (§2) Screening of peptoid antimicrobial activity against a panel of multidrug resistant superbugs was done according to the protocol described in the manuscript. The bacterial strains used in this panel included; P. aeruginosa PAO1 strain H103 [1], P. maltophilia ATCC#13637, S. aureus ATCC#25923 [1], E. faecalis ATCC#29212 [2], and E. cloacae 218R, constitutively expressing Class C chromosomal β-lactamase, were from the Hancock lab strains collection. An MRSA clinical isolate was kindly provided by Anthony Chow (Vancouver General Hospital, Vancouver, Canada). Two Klebsiella pneumoniae and two E. coli clinical isolates expressing extended spectrum β-lactamases (ESBL) were kindly provided by George Zhanel (Health Sciences Centre, Winnipeg, Canada). Vancomycin-resistant clinical isolates of Enterococcus faecalis and E. faecium were obtained from Ana M. Paccagnella (BC Centre for Disease Control, Vancouver, Canada). Three clinical isolates (#9, #198 and #213) of multi-drug resistant P. aeruginosa, were kindly provided by Carlos Kiffer (University of São Paulo, Brazil). […] Three P. aeruginosa clinical isolates of the Liverpool epidemic strain (LES) (H1027, H1030 and LES400) were all kindly provided by Craig Winstanley (University of Liverpool, UK). […] All tested bacterial strains were categorized as biohazard level 2 pathogens.
# [5] = system: E. coli 63103 (ESBL); assay: microbe, parasite or virus in culture; conditions: 63103 (ESBL)
# Experimental: as §1, §2
# [6] = system: E. coli 64771 (ESBL); assay: microbe, parasite or virus in culture; conditions: 64771 (ESBL)
# Experimental: as §1, §2
# [7] = system: E. faecalis ATCC29212; assay: microbe, parasite or virus in culture; conditions: ATCC29212
# Experimental: as §1, §2
# [8] = system: E. faecalis F43559 (VRE); assay: microbe, parasite or virus in culture; conditions: F43559 (VRE)
# Experimental: as §1, §2
# [9] = system: E. faecalis W61950 (VRE); assay: microbe, parasite or virus in culture; conditions: W61950 (VRE)
# Experimental: as §1, §2
# [10] = system: E. faecium T62764 (VRE); assay: microbe, parasite or virus in culture; conditions: T62764 (VRE)
# Experimental: as §1, §2
# [11] = system: E. faecium mic80 (VRE); assay: microbe, parasite or virus in culture; conditions: mic80 (VRE)
# Experimental: as §1, §2
# [12] = system: K. pneumonia 61962 (ESBL); assay: microbe, parasite or virus in culture
# Experimental: as §1, §2
# [13] = system: K. pneumonia 63575 (ESBL); assay: microbe, parasite or virus in culture
# Experimental: as §1, §2
# [14] = system: P. aeruginosa 198 (MDR); assay: microbe, parasite or virus in culture; conditions: 198 (MDR)
# Experimental: as §1, §2
# [15] = system: P. aeruginosa 213 (MDR); assay: microbe, parasite or virus in culture; conditions: 213 (MDR)
# Experimental: as §1, §2
# [16] = system: P. aeruginosa 9 (MDR); assay: microbe, parasite or virus in culture; conditions: 9 (MDR)
# Experimental: as §1, §2
# [17] = system: P. aeruginosa H1027 (MDR); assay: microbe, parasite or virus in culture; conditions: H1027 (MDR)
# Experimental: as §1, §2
# [18] = system: P. aeruginosa H103 (wild type); assay: microbe, parasite or virus in culture; conditions: H103 (wild type)
# Experimental: as §1, §2
# [19] = system: P. aeruginosa H1030 (MDR); assay: microbe, parasite or virus in culture; conditions: P. aeruginosa H1030 (MDR)
# Experimental: as §1, §2
# [20] = system: P. aeruginosa LES400 (MDR); assay: microbe, parasite or virus in culture; conditions: LES400 (MDR)
# Experimental: as §1, §2
# [21] = system: P. maltophilia ATCC13637; assay: microbe, parasite or virus in culture; conditions: ATCC13637
# Experimental: as §1, §2
# [22] = system: S. aureus ATCC25923; assay: microbe, parasite or virus in culture; conditions: ATCC25923
# Experimental: as §1, §2
# [23] = system: S. aureus C623 (MRSA); assay: microbe, parasite or virus in culture; conditions: C623
# Experimental: as §1, §2
Compound,MIC E. coli [1],HD10 (hemolytic activity) [2],HD50 (hemolytic activity) [2],"ID50 (inhibitory dose, metabolic activity) [3]",MIC [4],MIC [5],MIC [6],MIC [7],MIC [8],MIC [9],MIC [10],MIC [11],MIC [12],MIC [13],MIC [14],MIC [15],MIC [16],MIC [17],MIC [18],MIC [20],other results
"C[C@@H](c1ccccc1)N(CC(N)=O)C(=O)CN(CCCCN)C(=O)CN(CCCCN)C(=O)CN(C(=O)CN(C(=O)CN(CCCCN)C(=O)CN(C(=O)CN(CCCCN)C(=O)CN(CCCCN)C(=O)CN(C(=O)CN(C(=O)CNCCCCN)[C@@H](C)c1ccccc1)[C@@H](C)c1ccccc1)[C@@H](C)c1ccccc1)[C@@H](C)c1ccccc1)[C@@H](C)c1ccccc1 [1-NLys5,11, H-(NLys-Nspe-Nspe-NLys-NLys-Nspe)2-NH2] (H-[Nlys][Nspe][Nspe][Nlys][Nlys][Nspe][Nlys][Nspe][Nspe][Nlys][Nlys][Nspe]-NH2)",50 µM,>100 / >100,>100 / >100,85 µM,32 µg/mL,128 µg/mL,32 µg/mL,256 µg/mL,256 µg/mL,256 µg/mL,8 µg/mL,16 µg/mL,256 µg/mL,128 µg/mL,8 µg/mL,8 µg/mL,64 µg/mL,0.13 µg/mL,2 µg/mL,8 µg/mL,MIC [19]: 64 µg/mL; MIC [21]: 0.5 µg/mL; MIC [22]: 64 µg/mL; MIC [23]: 64 µg/mL
"CC(C)[C@H](C)N(CC(=O)N(CCCCN)CC(=O)N(CC(=O)N(CC(=O)N(CCCCN)CC(=O)N(CC(=O)N(CC(=O)N(CCCCN)CC(=O)N(CC(=O)N(CC(N)=O)[C@@H](C)c1ccccc1)[C@@H](C)c1ccccc1)[C@@H](C)C(C)C)[C@@H](C)C(C)C)[C@@H](C)c1ccccc1)[C@@H](C)c1ccccc1)C(=O)CN(C(=O)CNCCCCN)[C@@H](C)C(C)C [1-Nsdp2,3,8,9, H-(NLys-Nsdp-Nsdp-NLys-Nspe-Nspe)2-NH2] (H-[Nlys][X1][X1][Nlys][Nspe][Nspe][Nlys][X1][X1][Nlys][Nspe][Nspe]-NH2)",12.5 µM,77,> 200,19 µM,8 µg/mL,16 µg/mL,8 µg/mL,4 µg/mL,16 µg/mL,16 µg/mL,1 µg/mL,4 µg/mL,32 µg/mL,32 µg/mL,32 µg/mL,8 µg/mL,256 µg/mL,2 µg/mL,8 µg/mL,8 µg/mL,MIC [19]: 8 µg/mL; MIC [21]: 1 µg/mL; MIC [22]: 4 µg/mL; MIC [23]: 4 µg/mL
"C[C@H](NCC(=O)N(CCCCN)CC(=O)N(CC(=O)N(CCCCN)CC(=O)N(CCCCN)CC(=O)N(CC(=O)N(CC(=O)N(CCCCN)CC(=O)N(CC(=O)N(CCCCN)CC(=O)N(CCCCN)CC(=O)N(CC(N)=O)[C@@H](C)c1ccccc1)[C@@H](C)c1ccccc1)[C@@H](C)c1ccccc1)[C@@H](C)c1ccccc1)[C@@H](C)c1ccccc1)c1ccccc1 [1B-NLys4,10, H-(Nspe-NLys-Nspe-NLys-NLys-Nspe)2-NH2] (H-[Nspe][Nlys][Nspe][Nlys][Nlys][Nspe][Nspe][Nlys][Nspe][Nlys][Nlys][Nspe]-NH2)",50 µM,>200 / >200,>200 / >200,83 µM,32 µg/mL,128 µg/mL,32 µg/mL,256 µg/mL,256 µg/mL,256 µg/mL,16 µg/mL,32 µg/mL,256 µg/mL,128 µg/mL,32 µg/mL,16 µg/mL,128 µg/mL,0.25 µg/mL,4 µg/mL,16 µg/mL,MIC [21]: 0.25 µg/mL; MIC [22]: 256 µg/mL; MIC [23]: 256 µg/mL
